Results taken from EP0401963A1, “Phosphonopeptides with collagenase inhibiting activity” (Beecham Group p.l.c., priority 1989, dated 1990).

target: human lung fibroblast collagenase; experiment: Collagenase inhibitor assay (human lung fibroblast collagenase, 14C-acetylated Type I collagen fibril degradation); format: biochemical; conditions: Inhibition of human lung fibroblast collagenase (purified from WI-38 culture supernatants); 14C-acetylated rat skin Type I collagen substrate; 37°C overnight; read-out: IC₅₀
Description: The assay tubes are incubated at 37 °C overnight.

SMILES	IC50 [µM]
CCCCC(N[C@@H](CC(C)C)C(=O)NC1CCCCCCCCCCNC1=O)P(=O)(O)O (stereo partly drawn) [Example E8, 3-[N-[N-(1-Phosphonopentyl)-(S)-leucyl]]-(-)-aminoazacyclotridecan-2-one]	9.49
CC[C@@H](N[C@@H](CC(C)C)C(=O)NC1CCCCCCCCCCNC1=O)P(=O)(O)O (single isomer, unassigned) [Example E3C]	0.045
CC[C@H](N[C@@H](CC(C)C)C(=O)NC1CCCCCCCCCCNC1=O)P(=O)(O)O (single isomer, unassigned) [Example E4]	0.166
